Experimental data published in ChEMBL document CHEMBL1201862, “PubChem BioAssay data set” (2004).
The source made the active and inactive calls.

Key:
[1] = target: T1, Heat shock factor protein 1 (Mus musculus, UniProt P38532); test: inhibition of MG132-induced HSE-luciferase signal, confirmation, cell-based, NIH3T3, luminescence, dose retest (AID 2382); type: functional;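 note: NIH3T3 fibroblasts with HSF1-driven luciferase reporter stressed by proteasome inhibitor MG132; luminescence from HSF1-driven luciferase expression after 8 hours of MG132 stress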
T1 sequence (P38532 whole entry): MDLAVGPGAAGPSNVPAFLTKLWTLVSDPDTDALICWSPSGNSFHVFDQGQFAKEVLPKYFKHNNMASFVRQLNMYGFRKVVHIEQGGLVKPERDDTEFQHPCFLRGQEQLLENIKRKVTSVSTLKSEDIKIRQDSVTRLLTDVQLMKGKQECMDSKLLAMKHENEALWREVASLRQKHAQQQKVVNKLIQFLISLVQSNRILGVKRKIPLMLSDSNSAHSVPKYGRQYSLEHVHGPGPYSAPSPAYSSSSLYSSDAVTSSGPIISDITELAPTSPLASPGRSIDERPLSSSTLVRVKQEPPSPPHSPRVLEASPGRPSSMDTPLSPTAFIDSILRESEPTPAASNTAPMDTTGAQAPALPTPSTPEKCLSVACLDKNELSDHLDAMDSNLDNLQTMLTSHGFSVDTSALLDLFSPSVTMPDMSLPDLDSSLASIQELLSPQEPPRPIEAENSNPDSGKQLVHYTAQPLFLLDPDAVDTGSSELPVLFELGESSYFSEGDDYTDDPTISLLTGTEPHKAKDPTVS

[2] = target: T2, Mannose-6-phosphate isomerase (Homo sapiens, UniProt P34949); test: inhibitors of human PMI, primary screen, biochemical, fluorescence intensity, coupled assay (AID 1209)
T2 sequence (P34949 whole entry): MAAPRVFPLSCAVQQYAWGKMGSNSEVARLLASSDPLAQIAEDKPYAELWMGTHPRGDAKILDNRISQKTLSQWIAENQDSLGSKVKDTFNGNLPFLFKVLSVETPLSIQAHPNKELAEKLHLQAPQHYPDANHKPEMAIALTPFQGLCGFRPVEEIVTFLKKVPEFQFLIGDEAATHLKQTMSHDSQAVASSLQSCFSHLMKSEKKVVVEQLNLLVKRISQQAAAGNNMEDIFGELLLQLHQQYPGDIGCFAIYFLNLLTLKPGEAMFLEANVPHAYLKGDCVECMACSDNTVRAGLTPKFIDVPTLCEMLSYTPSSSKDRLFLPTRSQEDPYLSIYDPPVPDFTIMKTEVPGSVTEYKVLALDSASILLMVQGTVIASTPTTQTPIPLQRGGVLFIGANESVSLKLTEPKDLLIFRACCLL

[3] = inhibitors of Bluetongue virus cytopathic effect, confirmation, arbovirus, BSR cells (AID 1250); type: functional;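 note: protection from viral cytopathic effect measured as cell viability by ATP luminescence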
Streptokinase A = target: T3, Streptokinase A (Streptococcus pyogenes serotype M1, UniProt P10520); test: S. pyogenes streptokinase expression inhibitors, potency, dose response, plasminogen activation absorbance, OD405 (AID 1914); type: functional, Streptococcus pyogenes M1 GAS;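 note: secreted streptokinase activity via plasminogen activation per viability signal from cell pellet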
T3 sequence (P10520 whole entry): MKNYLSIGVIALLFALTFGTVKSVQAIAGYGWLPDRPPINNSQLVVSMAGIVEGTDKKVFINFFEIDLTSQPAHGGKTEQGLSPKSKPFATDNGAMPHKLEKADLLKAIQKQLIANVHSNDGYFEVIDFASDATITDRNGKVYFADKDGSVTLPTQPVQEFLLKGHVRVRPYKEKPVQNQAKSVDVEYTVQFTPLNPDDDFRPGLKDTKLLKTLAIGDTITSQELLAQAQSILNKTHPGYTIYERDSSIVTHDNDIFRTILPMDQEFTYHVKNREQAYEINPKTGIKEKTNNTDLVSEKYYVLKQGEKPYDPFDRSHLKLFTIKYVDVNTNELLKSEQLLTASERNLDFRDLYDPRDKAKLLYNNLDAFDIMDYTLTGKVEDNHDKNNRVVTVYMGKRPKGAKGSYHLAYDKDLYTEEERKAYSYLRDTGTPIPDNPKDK

[4] = system: Streptococcus sp. 'group A'; test: growth inhibition of control SK(-) GAS strain, dose response, counter-screen for streptokinase expression inhibitor project, luminescence, kanamycin, BacTiterGlo, confirmation (AID 1900); type: functional, organism-based
Streptococcus = test: Group A Streptococcus viability loss, dose response, counter-screen for streptokinase expression inhibitor project, luminescence, BacTiterGlo (AID 1915); type: functional, organism-based;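 note: potency for reduction of bacterial viability or growth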
fMet-Leu-Phe receptor = target: T4, fMet-Leu-Phe receptor (Homo sapiens, UniProt P21462); test: FPR ligands, dose response (AID 519); type: functional
T4 sequence (P21462 whole entry): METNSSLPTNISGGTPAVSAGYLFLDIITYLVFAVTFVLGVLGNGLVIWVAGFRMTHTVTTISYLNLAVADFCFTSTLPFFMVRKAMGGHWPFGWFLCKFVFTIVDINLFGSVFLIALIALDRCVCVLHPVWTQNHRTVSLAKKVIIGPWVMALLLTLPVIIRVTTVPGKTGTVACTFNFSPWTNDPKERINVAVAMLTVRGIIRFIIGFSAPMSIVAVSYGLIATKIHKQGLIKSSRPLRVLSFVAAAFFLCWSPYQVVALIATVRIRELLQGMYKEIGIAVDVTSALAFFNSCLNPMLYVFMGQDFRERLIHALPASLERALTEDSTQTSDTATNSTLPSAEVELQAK

Bcl-2-like protein 10 = Bcl-2-like protein 10 (Homo sapiens, UniProt Q9HD36); test: Biochemical TR3 FP assay of Bcl-B inhibitor potency, EC50 (AID 1243); type: functional
[5] = target: Epstein-Barr nuclear antigen 1 (Epstein-Barr virus (strain B95-8) (HHV-4) (Human herpesvirus 4), UniProt P03211); test: EBNA-1 inhibitors, dose response, biochemical, fluorescence polarization, 1536-well (AID 2381); set-up: species or system human gammaherpesvirus 4;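 note: fluorescence polarization of a Cy5 DNA probe bound by EBNA-1 protein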
[6] = target: Lytic switch protein BZLF1 (Epstein-Barr virus (strain B95-8) (HHV-4) (Human herpesvirus 4), UniProt P03206); test: EBV ZTA inhibitors, dose response, counter-screen for EBNA-1 inhibitor project, biochemical, fluorescence polarization, Epstein-Barr virus, 1536-well (AID 2377); set-up: species or system human gammaherpesvirus 4;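 note: fluorescence polarization of Cy5-labelled ZRE DNA probe bound by purified Zta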
Troponin, cardiac muscle = Troponin, cardiac muscle (Homo sapiens, UniProt P19429+P45379+P63316); test: Fluorescence-based biochemical high throughput dose response assay for activators of the calcium sensitivity of cardiac Regulated Thin Filaments (RTF). [Related pubchem assays (depositor defined):AID493008, AID493018, AID504382, AID504383]; type: protein-complex assay
Vasopressin V1a receptor = Vasopressin V1a receptor (Homo sapiens, UniProt P37288); test: Fluorescence-based cell-based high throughput dose response screening assay for agonists of the vasopressin 1 receptor (V1R).; type: functional
Oxytocin receptor = Oxytocin receptor (Homo sapiens, UniProt P30559); test: Counterscreen for vasopressin 1 receptor (V1R) agonists: Fluorescence-based cell-based high throughput dose response assay for agonists of the Oxytocin Receptor (OXTR). [Related pubchem assays: 2435 (Primary screen (OXTR agonists in singlicate)), 434964 (Confirmation screen (V1R agonists in triplicate)), 434969 (Counterscreen (OXTR agonists in …; type: functional
HeLa = test: Cytotoxicity counterscreen assay for transcriptional activators of heat shock protein 70 (Hsp70). [Related pubchem assays: 1203, 1252 ]; type: functional; settings: Homo sapiens
[7] = target: DNA dC->dU-editing enzyme APOBEC-3G (Homo sapiens, UniProt Q9HC16); type: functional;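 note: Dose-response counterscreen measuring inhibition of APOBEC3G DNA deaminase activity, run while confirming APOBEC3A inhibitors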
[8] = target: DNA dC->dU-editing enzyme APOBEC-3A (Homo sapiens, UniProt P31941); test: Dose Response confirmation of small molecule APOBEC3A DNA Deaminase Inhibitors via a fluorescence-based single-stranded DNA deaminase assay. [Related pubchem assays (depositor defined):AID493011, AID493024]; type: functional
cells = type: functional
[9] = growth suppression of PTEN-null colon cells, dose response, cell-based, HCT116 PTEN knockout (AID 1047); type: functional;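 note: HCT116 colon tumor cells with PTEN knocked out; cells exposed to compound for 60 hours before readout; potency for loss of cell viability measured by luminescence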
[10] = target: T5, Sphingosine 1-phosphate receptor 4 (Homo sapiens, UniProt O95977); test: Late stage fluorescence dose response cell-based screening assay for antagonists of the Sphingosine 1-Phosphate Receptor 4 (S1P4). [Related pubchem assays: 1524 (Confirmation screen (S1P4 antagonists).), 1510 (Primary screen (S1P4 antagonists).), 1853 (Summary AID (S1P4 antagonists).), 1692 (Dose response screen (S1P4 antagonists).)]; type: functional
T5 sequence (O95977 whole entry): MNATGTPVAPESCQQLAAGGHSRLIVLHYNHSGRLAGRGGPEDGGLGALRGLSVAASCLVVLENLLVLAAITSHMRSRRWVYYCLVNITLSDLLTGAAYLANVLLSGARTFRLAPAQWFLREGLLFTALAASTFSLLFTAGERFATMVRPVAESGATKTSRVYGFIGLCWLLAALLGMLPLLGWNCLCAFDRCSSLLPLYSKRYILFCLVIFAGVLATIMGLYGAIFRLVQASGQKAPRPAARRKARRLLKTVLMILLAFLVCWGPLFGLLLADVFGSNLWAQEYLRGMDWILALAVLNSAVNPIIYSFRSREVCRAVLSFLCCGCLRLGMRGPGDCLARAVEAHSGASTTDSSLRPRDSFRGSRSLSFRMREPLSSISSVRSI

[11] = THP-1 cell cytotoxicity, dose response, cytotoxicity control for non-replicating M. tuberculosis project (AID 489025); type: functional
[12] = Vero E6 cell cytotoxicity, dose response, cytotoxicity control for non-replicating M. tuberculosis project, secondary assay (AID 492998); type: functional, VeroE6; settings: Vero C1008
[13] = target: T5, Sphingosine 1-phosphate receptor 4; test: Fluorescence dose response cell-based high throughput screening assay for antagonists of the Sphingosine 1-Phosphate Receptor 4 (S1P4). [Related pubchem assays: 1524 (Confirmation in triplicates.), 1510 (Primary screen.)]; type: functional
[14] = target: Sphingosine 1-phosphate receptor 1 (Homo sapiens, UniProt P21453); type: functional;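 note: Tango beta-arrestin reporter U2OS cells stimulated with S1P near its EC80; inhibitor potency meaning antagonism of receptor activation by the natural agonist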
[15] = cytotoxicity in KRAS-transformed pancreatic duct cells, primary screen, cell-based, fluorescence, HTS (AID 431); type: functional; settings: Homo sapiens;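 note: cell line used: HPDE-C7K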
[16] = growth suppression of beta-catenin-knockout colon cells, dose response, cell-based, HCT116, human colon tumor (AID 1045); type: functional;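 note: HCT116 colon tumor cells with beta catenin knocked out; cells exposed to compound for 60 hours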
[17] = cytotoxicity in HPDE-C7 cells, cell-based, fluorescence, HTS (AID 430); type: functional; settings: Homo sapiens
[18] = NIH-3T3 fibroblast cytotoxicity, dose response, cytotoxicity control, cell-based, fluorescence, Alamar Blue, secondary assay (AID 2327); type: functional;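 note: NIH-3T3 mouse fibroblasts cultured with fluconazole at 8 µg/mL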
[19] = C. albicans growth with fluconazole, confirmation, fluorescence, retest (AID 2467); type: functional, cell-based
Estrogen receptor = target: T6, Estrogen receptor (Homo sapiens, UniProt P03372); test: potentiators of ERα–SRC-1 coactivator binding, dose response, biochemical, TR-FRET, ERα LBD (AID 737)
T6 sequence (P03372 whole entry): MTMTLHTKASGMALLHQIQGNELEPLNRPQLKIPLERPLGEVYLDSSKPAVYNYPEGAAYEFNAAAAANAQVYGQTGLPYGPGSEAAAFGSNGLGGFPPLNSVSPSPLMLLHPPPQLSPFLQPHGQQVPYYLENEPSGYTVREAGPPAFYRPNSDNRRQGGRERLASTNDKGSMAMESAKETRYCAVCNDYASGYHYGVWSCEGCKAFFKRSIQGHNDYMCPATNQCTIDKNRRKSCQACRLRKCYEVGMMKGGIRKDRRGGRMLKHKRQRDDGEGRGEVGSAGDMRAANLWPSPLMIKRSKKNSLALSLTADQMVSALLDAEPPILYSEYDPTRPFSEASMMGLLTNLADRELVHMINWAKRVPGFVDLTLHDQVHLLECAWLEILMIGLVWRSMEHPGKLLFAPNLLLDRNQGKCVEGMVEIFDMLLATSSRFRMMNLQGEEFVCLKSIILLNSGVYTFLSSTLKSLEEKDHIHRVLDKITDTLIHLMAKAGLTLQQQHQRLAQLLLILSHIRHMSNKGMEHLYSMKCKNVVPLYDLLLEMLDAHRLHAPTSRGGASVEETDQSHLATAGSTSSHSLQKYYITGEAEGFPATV

[20] = target: Protein-tyrosine kinase 2-beta (Homo sapiens, UniProt Q14289);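 note: potency of inhibitors of PYK2 kinase phosphorylation of poly-GT substrate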
Protein-tyrosine kinase 2-beta, sequence (Q14289 whole entry): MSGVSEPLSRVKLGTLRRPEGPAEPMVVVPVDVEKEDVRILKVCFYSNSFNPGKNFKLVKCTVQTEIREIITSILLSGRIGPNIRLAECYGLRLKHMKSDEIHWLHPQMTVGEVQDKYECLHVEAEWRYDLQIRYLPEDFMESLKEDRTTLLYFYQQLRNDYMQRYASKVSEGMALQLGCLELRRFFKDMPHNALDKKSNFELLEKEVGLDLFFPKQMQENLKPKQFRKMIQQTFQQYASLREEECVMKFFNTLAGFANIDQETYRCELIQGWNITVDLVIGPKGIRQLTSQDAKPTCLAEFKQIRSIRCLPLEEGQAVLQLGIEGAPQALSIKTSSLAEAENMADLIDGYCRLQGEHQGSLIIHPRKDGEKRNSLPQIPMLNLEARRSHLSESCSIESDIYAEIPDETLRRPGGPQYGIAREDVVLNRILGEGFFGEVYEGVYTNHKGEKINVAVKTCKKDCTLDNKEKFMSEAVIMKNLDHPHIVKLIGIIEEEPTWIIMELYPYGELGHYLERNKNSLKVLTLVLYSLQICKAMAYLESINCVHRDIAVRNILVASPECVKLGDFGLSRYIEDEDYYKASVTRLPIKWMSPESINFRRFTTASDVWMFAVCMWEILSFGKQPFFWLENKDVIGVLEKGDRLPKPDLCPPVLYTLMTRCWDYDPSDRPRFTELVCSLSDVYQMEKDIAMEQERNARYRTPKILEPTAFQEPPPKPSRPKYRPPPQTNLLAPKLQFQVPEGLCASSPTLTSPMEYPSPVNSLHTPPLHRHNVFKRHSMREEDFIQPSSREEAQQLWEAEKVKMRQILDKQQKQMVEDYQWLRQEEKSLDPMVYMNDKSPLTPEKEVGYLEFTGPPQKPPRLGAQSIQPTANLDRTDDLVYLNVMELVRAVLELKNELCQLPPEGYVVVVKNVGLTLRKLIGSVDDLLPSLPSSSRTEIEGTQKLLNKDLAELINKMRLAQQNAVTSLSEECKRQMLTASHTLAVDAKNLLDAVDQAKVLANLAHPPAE

Lytic switch protein BZLF1, sequence (P03206 whole entry): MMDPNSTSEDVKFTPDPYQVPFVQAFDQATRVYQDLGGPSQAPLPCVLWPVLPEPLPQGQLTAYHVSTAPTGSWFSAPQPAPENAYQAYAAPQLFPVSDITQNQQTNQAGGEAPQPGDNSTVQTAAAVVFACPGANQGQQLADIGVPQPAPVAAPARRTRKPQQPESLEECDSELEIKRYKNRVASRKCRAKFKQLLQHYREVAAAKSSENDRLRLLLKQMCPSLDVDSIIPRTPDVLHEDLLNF
Bcl-2-like protein 10, sequence (Q9HD36 whole entry): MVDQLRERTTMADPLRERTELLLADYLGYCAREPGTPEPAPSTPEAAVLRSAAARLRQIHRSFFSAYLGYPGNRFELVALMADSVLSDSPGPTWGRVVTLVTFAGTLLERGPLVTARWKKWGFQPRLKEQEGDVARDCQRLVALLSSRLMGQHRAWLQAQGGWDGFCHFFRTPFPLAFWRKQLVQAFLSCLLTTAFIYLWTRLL
Sphingosine 1-phosphate receptor 1, sequence (P21453 whole entry): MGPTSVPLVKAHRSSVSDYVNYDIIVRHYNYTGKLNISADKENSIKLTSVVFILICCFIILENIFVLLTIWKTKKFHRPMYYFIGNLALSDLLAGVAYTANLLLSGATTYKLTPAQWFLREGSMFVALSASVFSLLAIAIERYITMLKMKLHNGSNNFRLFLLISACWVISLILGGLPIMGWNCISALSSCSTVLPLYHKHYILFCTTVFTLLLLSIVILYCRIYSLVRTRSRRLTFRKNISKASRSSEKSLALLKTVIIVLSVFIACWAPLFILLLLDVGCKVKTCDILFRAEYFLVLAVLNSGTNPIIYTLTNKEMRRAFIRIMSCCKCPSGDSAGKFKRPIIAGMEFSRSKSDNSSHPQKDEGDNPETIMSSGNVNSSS
Oxytocin receptor, sequence (P30559 whole entry): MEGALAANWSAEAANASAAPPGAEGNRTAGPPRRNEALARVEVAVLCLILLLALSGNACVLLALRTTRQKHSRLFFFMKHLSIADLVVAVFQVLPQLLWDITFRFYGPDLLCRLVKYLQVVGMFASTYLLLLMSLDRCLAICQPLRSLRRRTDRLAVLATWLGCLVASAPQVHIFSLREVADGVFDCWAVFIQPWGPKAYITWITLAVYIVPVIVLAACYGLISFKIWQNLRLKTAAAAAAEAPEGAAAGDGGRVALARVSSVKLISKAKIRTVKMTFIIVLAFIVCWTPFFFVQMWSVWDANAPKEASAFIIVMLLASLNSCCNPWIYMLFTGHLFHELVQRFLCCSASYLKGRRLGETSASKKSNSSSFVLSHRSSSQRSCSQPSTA
Vasopressin V1a receptor, sequence (P37288 whole entry): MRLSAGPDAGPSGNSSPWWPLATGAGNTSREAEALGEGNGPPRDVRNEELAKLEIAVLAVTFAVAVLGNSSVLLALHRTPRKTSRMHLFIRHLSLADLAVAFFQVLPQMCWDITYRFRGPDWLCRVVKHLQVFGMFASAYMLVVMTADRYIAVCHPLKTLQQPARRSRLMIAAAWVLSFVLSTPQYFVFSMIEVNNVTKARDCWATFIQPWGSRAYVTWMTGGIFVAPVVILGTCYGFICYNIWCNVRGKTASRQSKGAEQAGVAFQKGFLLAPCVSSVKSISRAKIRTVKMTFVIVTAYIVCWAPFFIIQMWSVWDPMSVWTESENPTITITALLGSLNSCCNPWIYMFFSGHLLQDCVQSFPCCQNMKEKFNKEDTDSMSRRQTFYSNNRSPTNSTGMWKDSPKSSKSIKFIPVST
DNA dC->dU-editing enzyme APOBEC-3A, sequence (P31941 whole entry): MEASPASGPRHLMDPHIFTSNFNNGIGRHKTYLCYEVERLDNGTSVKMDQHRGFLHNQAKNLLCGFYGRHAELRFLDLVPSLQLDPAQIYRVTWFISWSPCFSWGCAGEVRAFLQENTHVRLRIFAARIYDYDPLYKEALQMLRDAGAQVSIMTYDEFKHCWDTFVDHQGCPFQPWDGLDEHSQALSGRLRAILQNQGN
Epstein-Barr nuclear antigen 1, sequence (P03211 whole entry): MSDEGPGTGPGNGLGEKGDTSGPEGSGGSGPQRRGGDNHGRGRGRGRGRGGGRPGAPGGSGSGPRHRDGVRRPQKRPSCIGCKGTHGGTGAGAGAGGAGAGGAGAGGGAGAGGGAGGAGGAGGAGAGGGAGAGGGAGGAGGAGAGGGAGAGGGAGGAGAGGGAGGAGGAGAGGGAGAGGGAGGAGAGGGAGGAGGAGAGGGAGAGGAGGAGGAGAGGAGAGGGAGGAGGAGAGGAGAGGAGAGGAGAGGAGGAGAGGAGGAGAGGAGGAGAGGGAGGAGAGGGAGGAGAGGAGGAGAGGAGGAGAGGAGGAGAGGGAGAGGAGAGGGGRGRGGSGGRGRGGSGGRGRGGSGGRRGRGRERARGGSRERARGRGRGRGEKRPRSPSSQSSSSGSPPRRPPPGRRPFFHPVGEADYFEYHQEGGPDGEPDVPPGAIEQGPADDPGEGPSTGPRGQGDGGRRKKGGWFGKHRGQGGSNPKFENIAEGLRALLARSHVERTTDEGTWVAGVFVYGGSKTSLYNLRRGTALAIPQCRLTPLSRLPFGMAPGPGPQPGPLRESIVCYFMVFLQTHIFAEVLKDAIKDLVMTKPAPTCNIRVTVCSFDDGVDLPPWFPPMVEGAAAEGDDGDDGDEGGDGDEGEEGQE
DNA dC->dU-editing enzyme APOBEC-3G, sequence (Q9HC16 whole entry): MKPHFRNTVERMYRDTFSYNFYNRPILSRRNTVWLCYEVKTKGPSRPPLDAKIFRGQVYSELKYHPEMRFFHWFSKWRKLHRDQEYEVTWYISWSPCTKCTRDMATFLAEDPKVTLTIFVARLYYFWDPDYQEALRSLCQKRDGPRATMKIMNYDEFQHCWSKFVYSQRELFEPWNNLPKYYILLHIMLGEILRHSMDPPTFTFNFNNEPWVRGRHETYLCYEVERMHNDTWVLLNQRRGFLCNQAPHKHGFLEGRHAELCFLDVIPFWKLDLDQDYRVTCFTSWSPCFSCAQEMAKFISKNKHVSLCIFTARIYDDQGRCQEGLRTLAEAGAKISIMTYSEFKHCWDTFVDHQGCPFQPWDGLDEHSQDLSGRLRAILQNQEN

## Cc1nn(-c2ccccc2)c(S)c1/C=N/c1cccc([N+](=O)[O-])c1
[1]
  EC50: > 195 µM (not active)
[2]
  IC50: 19.1 µM (active)

## CCOC(=O)c1sc(=S)n2c1[nH]c(=O)c1ccc(C(=O)OC)cc12
[3]
  IC50: 53 µM (active)
Streptokinase A
  EC50: > 150 µM (not active)
[4]
  EC50: 6.34 µM (active)
Streptococcus
  EC50: 11.5 µM (active)
fMet-Leu-Phe receptor
  Ki: > 66.7 µM (inactive)

## O=C(O)Cc1c[nH]c2ccc(O)cc12
Bcl-2-like protein 10
  EC50: 7.88 µM (active)

## CN1CCN(c2ccc(-c3cccc(NC(=O)COc4ccc(Cl)cc4Cl)c3)nn2)CC1
[5]
  IC50: > 148 µM (not active)
[6]
  IC50: > 111 µM (not active)

## CCSC1=N/C(=C\C=C2/Oc3ccccc3N2CC)C(=O)S1
Troponin, cardiac muscle
  EC50: 4.53 µM (active)
Vasopressin V1a receptor
  EC50: > 29.9 µM (not active)
Oxytocin receptor
  EC50: > 29.9 µM (not active)

## COc1ccc(N=Nc2[nH]c3ccc(C)cc3c2O)cc1
HeLa
  CC50: > 33 µM (not active)
[7]
  IC50: 7.98 µM (active)
[8]
  IC50: 8.35 µM (active)

## CCCS(=O)(=O)c1nnnn1-c1cccc(OC)c1
cells
  IC50: 5.35 µM (active)
[9]
  EC50: 7.57 µM (active)
[10]
  IC50: 4.51 µM (not active)
[11]
  CC50: 17.8 µM (active)
[12]
  CC50: 11.7 µM (active)
[13]
  IC50: 0.951 µM (active)
[14]
  IC50: 20.1 µM (not active)
[15]
  EC50: 6.25 µM (active)
[16]
  EC50: 6.66 µM (active)
[17]
  EC50: 6.57 µM (active)
[18]
  EC50: 5.1 µM (inconclusive)
[19]
  EC50: 2.49 µM (active)

## O=c1cc(-c2ccco2)oc2c1ccc1ccccc12
Estrogen receptor
  EC50: 12.4 µM (active)
[20]
  IC50: > 69.5 µM (not active)
